From PubChem BioAssay (NCI)
Values joined by “and” are separate entries in the source; they are usually repeats but may differ in a detail not shown here. Equal entries are not always repeated.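 Following 48 hours of exposure in 96-well plates, responses at five concentrations were used to interpolate endpoints linearly. Here, GI50 denotes the concentration required for 50% inhibition of growth. TGI is the concentration that stops growth completely.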

Key:
Experiment in all cases: inhibition of tumour cell growth, NCI panel, 48 h
[1] = test system: A498 renal
[2] = test system: HCC-2998 colon
[3] = test system: HOP-92 NSCLC
[4] = test system: NCI-H460 lung
[5] = test system: OVCAR-4 ovarian
[6] = test system: OVCAR-8 ovarian
[7] = test system: SN12C renal
[8] = test system: SW-620 colon
[9] = test system: UACC-62 melanoma
[10] = test system: UO-31 renal

Row | Structure (SMILES) | TGI [1] | TGI [2] | TGI [3] | TGI [4] | TGI [5] | TGI [6] | TGI [7] | TGI [8] | TGI [9] | TGI [10] | GI50 [1] | GI50 [2] | GI50 [3] | GI50 [4] | GI50 [5] | GI50 [6] | GI50 [7] | GI50 [8] | GI50 [9] | GI50 [10]
1 | COC(=O)C12C3C4C5C3(C#N)C1C5(C(=O)OC)C42C(=O)N(C(C)C)C(C)C (stereo not drawn) | > 100 µM | > 100 µM | > 100 µM | > 100 µM | > 100 µM | > 100 µM | > 100 µM | > 65.3 µM | > 100 µM | > 100 µM |  |  |  |  |  |  |  |  |  | 
2 | COc1ccc2c(CN3CCC[C@H]3C(=O)O)cc3cc4c(cc3c2c1)OCO4 | 26.4 µM | 33.7 µM | 82.5 µM | 88.2 µM | 61.4 µM | 82.3 µM | 73.2 µM | 70.4 µM | 23.7 µM | > 100 µM | 11.1 µM | 14.5 µM | 17.4 µM | 14.6 µM | 19.2 µM | 5.65 µM | 6.04 µM | 5.15 µM | 10.9 µM | 17 µM
3 | COc1cc2cc(C(=O)Nc3cc(N)c4ccccc4c3CCCl)[nH]c2c(OC)c1OC | 0.19 µM | 0.034 µM | 11.8 µM | 0.0396 µM | 0.325 µM | 0.841 µM | 0.611 µM | > 18.3 µM | 0.154 µM | 41.2 µM | 0.0271 µM | 0.00922 µM | 0.167 µM | 0.00913 µM | 0.0733 µM | 0.0191 µM | 0.0548 µM | 0.016 µM | 0.0717 µM | 0.0353 µM
4 | Nc1cc(-c2cccc(OC(F)(F)F)c2)nc2ccc(N3CCCC3)cc12 | 0.193 µM and 0.0936 µM and 0.257 µM |  | 18.2 µM and > 100 µM and 74.2 µM | 12.5 µM and > 100 µM | > 100 µM | 32.6 µM and > 100 µM | 19.7 µM and > 100 µM | 22.1 µM and > 100 µM | 15.8 µM and > 100 µM | 17.7 µM and > 100 µM | 0.0271 µM and 0.023 µM and 0.0266 µM | 0.037 µM and 0.0351 µM and 0.0371 µM | 0.0888 µM and 0.184 µM and 0.0868 µM | 0.0354 µM and 0.0359 µM | 0.519 µM and 1.16 µM and 1.59 µM | 0.0547 µM and 0.0497 µM and 0.0459 µM | 0.113 µM and 0.0716 µM and 0.0692 µM | 0.0435 µM and 0.0413 µM and 0.0366 µM | 0.0718 µM and 0.048 µM and 0.0603 µM | 0.119 µM and 0.15 µM and 0.0758 µM
5 | C=C[C@H]1CCC/C=C/[C@@H]2C[C@H](O)C[C@H]2[C@H](O)/C=C/C(=O)O1 | 0.0528 µM |  | 2.99 µM | > 100 µM | > 100 µM | > 100 µM | > 100 µM | 0.0949 µM | > 100 µM | > 100 µM | 0.015 µM | 0.0316 µM | 0.0289 µM | 0.0422 µM | 0.0303 µM | 0.0374 µM | 0.0374 µM | 0.0275 µM | 0.0344 µM | 0.0341 µM
6 | C=C1C(=O)[C@@]23CC1C(O)[C@@H](OC(C)=O)[C@@H]2C1(C)C(OC(C)=O)C[C@@H](OC(C)=O)C(C)(C)[C@@H]1C[C@H]3OC(C)=O (stereo partly drawn) | > 10 µM and 30.6 µg/mL | > 10 µM and 31.3 µg/mL | > 10 µM and 3.84 µg/mL | > 10 µM and 19.4 µg/mL | > 10 µM and 22.1 µg/mL | > 10 µM and 20.1 µg/mL | > 10 µM and 17 µg/mL | 3.33 µM and 4.57 µg/mL | 3.53 mg/L | > 10 µM and 16.3 µg/mL | 16.3 mg/L | 17.3 mg/L | 3.6 µM and 1.95 µg/mL | > 10 µM and 7.27 µg/mL | > 10 µM and 8.36 µg/mL | 3.37 µM and 3.94 µg/mL | 5.5 mg/L | 1.7 µM and 1.85 µg/mL | 1.77 mg/L | > 10 µM and 6.65 µg/mL
7 | CCOC(=O)C1=C(Nc2ccc(Cl)cc2Cl)OC/C1=N\NS(=O)(=O)c1ccc(C)cc1 | > 100 µM | > 100 µM | > 100 µM | > 100 µM | > 100 µM | > 100 µM | > 100 µM | > 100 µM | > 100 µM | > 100 µM |  |  |  |  |  |  |  |  |  | 
8 | COc1ccc2c(c1)OC1=C(C(=O)OC1)C2c1cc(OC)c(OC)c(OC)c1 (stereo not drawn) | 15.1 µM | > 100 µM | > 100 µM | > 81.2 µM | > 100 µM | > 100 µM | > 100 µM | > 100 µM | > 100 µM | > 100 µM | 0.281 µM | 1.27 µM | 3.99 µM | 0.359 µM | 1.42 µM | 0.709 µM | 0.806 µM | 0.334 µM | 0.55 µM | 0.961 µM
9 | Cc1ccc(-c2nc(N)nc3c2nnn3Cc2cccc(CO[C@H]3CCOC3)n2)o1 | > 100 µM | > 100 µM | > 100 µM | > 100 µM | > 100 µM | > 100 µM | > 100 µM | > 100 µM | > 100 µM | > 100 µM | 69.9 µM | > 100 µM | > 100 µM | > 100 µM | 66.5 µM | > 100 µM | > 100 µM | > 100 µM | > 100 µM | > 100 µM
10 | COC(=O)c1c2c(c(C)[n+]([O-])c1C)C(=O)C=C(NCc1ccc(OC)cc1)C2=O | 6.21 µM | 4.78 µM | 6.12 µM | 4.69 µM | 1.79 µM | 4.48 µM | 4.3 µM | 4.08 µM | 2.51 µM | 6.83 µM | 1.59 µM | 1.54 µM | 2.35 µM | 1.29 µM | 0.655 µM | 1.11 µM | 1.69 µM | 1.08 µM | 0.85 µM | 2.2 µM
11 | O=C1c2cc([N+](=O)[O-])ccc2-c2cccc(F)c21 | > 100 µM | > 100 µM | > 100 µM | > 100 µM | > 100 µM | > 100 µM | > 100 µM | > 100 µM | > 100 µM | > 100 µM |  |  |  |  |  |  |  |  |  | 
12 | NC1CCCCC1N.O=S(=O)([O-])CCCN1CCOCC1.O=S(=O)([O-])CCCN1CCOCC1.[Pt+4] | > 100 µM | > 100 µM | > 100 µM | > 100 µM | > 100 µM | > 100 µM | > 100 µM | 17.1 µM | > 83.1 µM | > 100 µM | 49 µM | 36.3 µM | 32.4 µM | 3.54 µM | > 29.7 µM | 10.6 µM | 10.7 µM | 1.32 µM | 11.8 µM | 19.3 µM
13 | COc1ccc(C(=O)OC2C=COC(C)C2OC(=O)c2ccc(OC)cc2)cc1 (stereo not drawn) | > 100 µM | > 100 µM | 37.1 µM | > 100 µM | > 63.2 µM | > 73.7 µM | > 64.5 µM | 35.1 µM | 37.7 µM | > 100 µM |  |  |  |  |  |  |  |  |  | 
